Assay results from patent US5116829A, “Steroid compounds” (Kao Corporation, priority 1990, dated 1992).
Read-outs that look alike come from different tables or passages of the source.

Assays:
[1] = test system: edema of rat auricle; test: Anti-inflammatory activity (1): croton oil-induced auricle edema; format: in vivo, Wistar male rats; details: 10^-3 M, 800 μl/auricle, 15 seconds, weighed after 6 hours, read-out: Edema inhibitory rate (%)
Method: Test Method of Anti-inflammatory Activity (1) […] Wistar male rats, age 5 weeks, each group consisting of 5, were served for the test. The test samples and an inflammation-inducingbase material (control) were infiltrated into circular […]) fixed onto specially prepared tweezers and the right auricles of the animals were put between the tweezers to apply the samples (800 μl/auricle) for 15 seconds at a constant pressure of 500 gw. After 6 hours, the both auricles were punched (.phi. 9 mm) and weighed. An edema inhibitory rate determined by the following equation was taken as an index of the anti-inflammatory activity of the steroid samples. Edema inhibitory rate (%)=100-Y/Z×100 wherein Y is the weight difference (mg) of the right auricle to which the sample drug was applied and the untreated left auricle, and Z is the weight difference (mg) of the right auricle of the rat to which the inflammation-inducing base material was applied and the untreated left auricle.

[2] = test system: granuloma; test: Anti-inflammatory activity (2): granuloma around embedded filter paper; format: in vivo, Wistar male rats; details: 10^-2 M, 50 μl/paper, after 6 days; for inhibition at 10000 µM: Rattus norvegicus, 144 h, read-out: Granulating Inhibitory Rate (%)
Excerpt: Test Method of Anti-inflammatory Activity (2) Wistar male rats, age 5 weeks, each group consisting of 5-8 rats, were served for the test. […] The paper was embedded into the right back of the rats. Into the left back was embedded an untreated antibiotic test filter paper. After 6 days, the animals were sacrificed by bleeding and the backs were incised to extract each granuloma formed around the filter. The granuloma was dried and weighed. To the right backs of the control group antibiotic test filter papers infiltrated with 50 μl/paper of ethanol and dried were embedded.

[3] = Acute toxicity (oral administration); design: species or system ICR mice (male); details: mouse, in vivo, 14 days after administration, read-out: Viability (%)
Method: Acute toxicity (oral administration) of the compound of the present invention was evaluated according to the following method. […]

[4] = test system: eosinophiles infiltration; test: Anti-allergic activity: FMLP-induced eosinophiles infiltration in trachea; format: in vivo, guinea pigs (male); details: positive control; after 4 hours (so in the source)
Method: Test Method of Anti-allergic Activity
To tracheas around the neck of guinea pigs (male; weight 200-300 gm) exposed under anesthesia with Nembutal (0.05 ml/animal, i.p.) were injected FMLP (10^-4 M), which is an inflammation-inducing compound, dissolved in 1% dimethylsulfoxide solution in physiological saline, individually o together with the test compound with a 26 guage needle. For the negative control, only dimethylsulfoxide was injected, and for the positive control betamethasone was administered. […] Eosinophiles infiltrated into the upper, middle, and lower parts of the trachea were counted by microscope. Numbers of eosinophiles found in tracheas to which the test compound was injected were compared with those to which FMLP was independently injected.

[5] = test system: thymus; test: Systemic side effects: thymus weight; format: in vivo, ddY male mice; details: 2 mM in peanut oil, s.c., two times at 24 hour interval; Means ± S.E.
Method: Systemic side effects of the compound of the present invention were evaluated according to the following method.
Suspensions of the test compounds (2 mM) in peanut oil were subcutaneously injected into the back of ddY male mice (weight: about 30 gm), 10 mice consisting of a test group, two times, once a day at a 24 hour interval. After 24 hours from the last injection, the mice were sacrificed to extract the thymus and to weigh its weight. For the control group only peanut oil was administered. The results are shown in […]

Row | SMILES | inhibition at 1000 µM [1] | Dry weight of ganuloma [2] | inhibition at 10000 µM [2] | survival at 336 h ([3]; dose 1.7 (mg/kg)) | survival at 336 h ([3]; dose 3.3 (mg/kg)) | survival at 336 h ([3]; dose 5 (mg/kg)) | eosinophiles infiltration inhibitory effect [4] | Thymus weight/10 gm body weight [5]
1 | CCCCC(=O)O[C@]1(C(=O)CO)[C@@H](C)C[C@H]2[C@@H]3CCC4=CC(=O)C=C[C@]4(C)[C@@]3(F)[C@@H](O)C[C@@]21C [Betamethasone 17-valerate, betamethasone 17-valerate, reference compound] | 34% | 15.0 mg | 26.6% | 100% | 100% | 50% | – | –
2 | C[C@H]1C[C@H]2[C@@H]3CCC4=CC(=O)C=C[C@]4(C)[C@@]3(F)[C@@H](O)C[C@]2(C)[C@@]1(O)C(=O)CO [Betamethasone, betamethasone] | – | – | – | – | – | – | only a small effect | 15.4 ± 1.4 mg
3 | CSCC[C@H](NC=O)C(=O)SCC(=O)[C@@]1(O)[C@@H](C)C[C@H]2[C@@H]3CCC4=CC(=O)C=C[C@]4(C)[C@@]3(F)[C@@H](O)C[C@@]21C [Compound No. 1, 9-Fluoro-21-[2-(formylamino)-4-methylthio-1-oxobutylthio]-11β,17-dihydroxy-16β-methylpregna-1,4-diene-3,20-dione] | 44% | 10.7 mg | 47.7% | 100% | 100% | 100% | – | 23.4 ± 0.3 mg
4 | CSCC[C@H](NC=O)C(=O)SCC(=O)[C@@]12OC(C)(C)O[C@@H]1C[C@H]1[C@@H]3CCC4=CC(=O)C=C[C@]4(C)[C@@]3(F)[C@@H](O)C[C@@]12C [Compound No. 3, 9-Fluoro-21-[2-(formylamino)-4-methylthio-1-oxobutylthio]-11β-hydroxy-16α,17α-isopropylidenedioxypregna-1,4-diene-3,20-dione] | 74% | – | – | – | – | – | – | –
5 | CSCCC(NC=O)C(=O)SCC(=O)[C@@]1(O)[C@H](C)C[C@H]2[C@@H]3CC(F)C4=CC(=O)C=C[C@]4(C)[C@@]3(F)[C@H](O)C[C@@]21C (stereo partly drawn) [Compound No. 5, 6,9-Difluoro-21-[2-(formylamino)-4-methylthio-1-oxobutylthio]-11α,17-dihydroxy-16α-methylpregna-1,4-diene-3,20-dione] | 74% | – | – | – | – | – | – | –
6 | CCCCC(=O)O[C@]1(C(=O)CSC(=O)[C@H](CCSC)NC=O)[C@@H](C)C[C@H]2[C@@H]3CCC4=CC(=O)C=C[C@]4(C)[C@@]3(F)[C@@H](O)C[C@@]21C [Compound No. 6, 9-Fluoro-21-[2-(formylamino)-4-methylthio-1-oxobutylthio]-11β-hydroxy-16β-methyl-17-(1-oxopentyloxy)-pregna-1,4-diene-3,20-dione] | – | 7.4 mg | 63.9% | – | – | – | – | –
7 | C[C@]12CCC(=O)C=C1CC[C@@H]1[C@@H]2[C@@H](O)C[C@@]2(C)[C@H]1CC[C@]2(O)C(=O)CO [Hydrocortisone, hydrocortisone, reference compound] | – | – | – | – | – | – | – | 20.8 ± 2.1 mg
